From patent publication US12448400B2, “KRAS G12D modulating compounds” (priority 2023, dated 2025)

Target: GDP-loaded KRAS G12D (Homo sapiens, UniProt P01116, G12D)
Test: KRAS G12D (GDP) biochemical assay, TR-FRET probe displacement
Assay type: binding
Details: 0.5 nM enzyme, 30 min pre-incubation, 2 h incubation, TR-FRET ratio; read-out: G12D IC50
Experimental: Example A. KRAS G12D (GDP) Biochemical Assay
Compounds were tested for binding to GDP-loaded KRAS G12D in a 384-well assay format using a TR-FRET probe displacement assay in buffer consisting of 50 mM Hepes (pH 7.4), 150 mM NaCl, 5 mM MgCl2 and 0.005% Tween-20. […] Compounds were serially diluted (1:3) in DMSO. The LabCyte ECHO Acoustic dispenser system was used to pre-spot the assay plates (384-well Non-Binding Surface plates, Corning, Catalog #3824) with 50 nL of compound. The compounds were pre-incubated with 5 μL of 2× final enzyme concentration for 30 minutes before adding 5 μL of 2× final concentration of Eu-streptavidin and TR-FRET probe (10 μL final reaction volume). The plates were incubated at room temperature for 2 hours before measuring TR-FRET ratio on the Envision plate reader. IC50 values were defined as the compound concentration that causes a 50% decrease in TR-FRET ratio and were calculated using a sigmoidal dose-response model to generate curve fits.

Chain of GDP-loaded KRAS G12D (P01116 1-188 isoform P01116-2 G12D): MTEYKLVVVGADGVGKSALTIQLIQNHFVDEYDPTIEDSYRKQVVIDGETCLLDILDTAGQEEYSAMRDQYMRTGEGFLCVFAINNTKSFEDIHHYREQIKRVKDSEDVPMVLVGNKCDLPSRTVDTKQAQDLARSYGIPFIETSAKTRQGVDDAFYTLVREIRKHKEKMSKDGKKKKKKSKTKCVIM

Compared with `C#Cc1c(F)ccc2cc(O)cc(-c3c(F)c4c5c(nc(OC[C@@]67CCCN6C[C@H](F)C7)nc5c3F)N3C[C@H]5CC[C@H](N5)[C@H]3CCC4)c12` (atropisomer, axis not shown; (aR)) [Example 28-P, (R)-4-((1S,4R,15aR)-10,12-difluoro-8-(((2R,7aS)-2-fluorotetrahydro-1H-pyrrolizin-7a(5H)-yl)methoxy)-2,3,4,5,13,14,15,15a-octahydro-1H-1,4-epiminoazepino[1′,2′:1,8]azocino[2,3,4-de]quinazolin-11-yl)-5-ethynyl-6-fluoronaphthalen-2-ol], `C#Cc1c(F)ccc2cc(O)cc(-c3c(F)c4c5c(nc(OC[C@]6(C)CN(C)CC[C@@H]6C(F)F)nc5c3F)N3C[C@H]5CC[C@H](N5)[C@H]3CCC4)c12` (atropisomer, axis not shown; (aR)) [Example 78-P, (R)-4-((1S,4R,15aR)-8-(((3S,4S)-4-(difluoromethyl)-1,3-dimethylpiperidin-3-yl)methoxy)-10,12-difluoro-2,3,4,5,13,14,15,15a-octahydro-1H-1,4-epiminoazepino[1′,2′:1,8]azocino[2,3,4-de]quinazolin-11-yl)-5-ethynyl-6-fluoronaphthalen-2-ol] is 1.8-fold lower in IC50: 70 pM for the first, 40 pM for the second. The second is the more potent here.

Tested on: GP2D (KRAS G12D) cells
Test: 2D cell viability assay (CellTiter-Glo)
Assay type: cell-based
Details: 96 h; GP2D cells, 4 days, CellTiter-Glo luminescence; read-out: G12D 2D EC50
Experimental: Example B. 2D Cell Viability Assay
Compounds were tested in a 384-well format for their ability to inhibit the viability of GP2D (KRAS G12D) cells in 2D assays. Compounds were serially diluted (1:3) in DMSO. The LabCyte ECHO Acoustic dispenser system was used to pre-spot assay plates with 200 nL of test molecule per well. 1000 cells/well (40 μL volume per well) in RPMI medium with 10% FBS, and Penicillin-Streptomycin-Glutamine were plated in pre-spotted 384-well plates (Greiner, Catalog #781076) on the BioTEK EL406 liquid dispenser with a 5 μL dispensing cassette (BioTek 7170011). The plates were incubated at 37° C., 5% CO2 for 4 days before addition of CellTiter-Glo (CTG) reagent and measurement of luminescence signal. EC50 values were defined as the compound concentration that causes a 50% decrease in luminescence signal and were calculated using a sigmoidal dose-response model to generate curve fits.

`C#Cc1c(F)ccc2cc(O)cc(-c3c(F)c4c5c(nc(OC[C@@]67CCCN6C[C@H](F)C7)nc5c3F)N3C[C@H]5CC[C@H](N5)[C@H]3CCC4)c12` (atropisomer, axis not shown; (aR)) [Example 28-P, (R)-4-((1S,4R,15aR)-10,12-difluoro-8-(((2R,7aS)-2-fluorotetrahydro-1H-pyrrolizin-7a(5H)-yl)methoxy)-2,3,4,5,13,14,15,15a-octahydro-1H-1,4-epiminoazepino[1′,2′:1,8]azocino[2,3,4-de]quinazolin-11-yl)-5-ethynyl-6-fluoronaphthalen-2-ol] and `C#Cc1c(F)ccc2cc(O)cc(-c3c(F)c4c5c(nc(OC[C@]6(C)CN(C)CC[C@@H]6C(F)F)nc5c3F)N3C[C@H]5CC[C@H](N5)[C@H]3CCC4)c12` (atropisomer, axis not shown; (aR)) [Example 78-P, (R)-4-((1S,4R,15aR)-8-(((3S,4S)-4-(difluoromethyl)-1,3-dimethylpiperidin-3-yl)methoxy)-10,12-difluoro-2,3,4,5,13,14,15,15a-octahydro-1H-1,4-epiminoazepino[1′,2′:1,8]azocino[2,3,4-de]quinazolin-11-yl)-5-ethynyl-6-fluoronaphthalen-2-ol] are within 1.5-fold of each other in EC50: 130 pM for the first, 140 pM for the second.

`C#Cc1c(F)ccc2cc(O)cc(-c3nc4c5c(nc(OC[C@@]67CCCN6C[C@H](F)C7)nc5c3F)N3C[C@H]5CC[C@@H]([C@H]3CCC4)N5Cc3oc(=O)oc3CC)c12` [Example 40, 4-ethyl-5-(((6aR,7S,10R)-2-(8-ethynyl-7-fluoro-3-hydroxynaphthalen-1-yl)-1-fluoro-13-(((2R,7aS)-2-fluorotetrahydro-1H-pyrrolizin-7a(5H)-yl)methoxy)-5,6,6a,7,8,9,10,11-octahydro-4H-3,11a,12,14,15-pentaaza-7,10-methanocyclohepta[4,5]cycloocta[1,2,3-de]naphthalen-15-yl)methyl)-1,3-dioxol-2-one] and `C#Cc1c(F)ccc2cc(O)cc(-c3nc4c5c(nc(OC[C@@]67CCCN6C[C@H](F)C7)nc5c3F)N3C[C@H]5CC[C@@H]([C@H]3CCC4)N5Cc3oc(=O)oc3CCC)c12` [Example 41, 4-(((6aR,7S,10R)-2-(8-ethynyl-7-fluoro-3-hydroxynaphthalen-1-yl)-1-fluoro-13-(((2R,7aS)-2-fluorotetrahydro-1H-pyrrolizin-7a(5H)-yl)methoxy)-5,6,6a,7,8,9,10,11-octahydro-4H-3,11a,12,14,15-pentaaza-7,10-methanocyclohepta[4,5]cycloocta[1,2,3-de]naphthalen-15-yl)methyl)-5-propyl-1,3-dioxol-2-one] are within 1.5-fold of each other in EC50: 220 pM for the first, 180 pM for the second.

First: C#Cc1c(F)ccc2cc(OCc3oc(=O)oc3C(C)(C)C)cc(-c3nc4c5c(nc(OC[C@@]67CCCN6C[C@H](F)C7)nc5c3F)N3C[C@H]5CC[C@H](N5)[C@@H]3[C@@H](C)C4)c12 [Example 67, 4-(tert-butyl)-5-(((5-ethynyl-6-fluoro-4-((5S,5aS,6S,9R)-1-fluoro-12-(((2R,7aS)-2-fluorotetrahydro-1H-pyrrolizin-7a(5H)-yl)methoxy)-5-methyl-4,5,5a,6,7,8,9,10-octahydro-3,10a,11,13,14-pentaaza-6,9-methanonaphtho[1,8-ab]heptalen-2-yl)naphthalen-2-yl)oxy)methyl)-1,3-dioxol-2-one]
Second: C#Cc1c(F)ccc2cc(NCc3oc(=O)oc3C)cc(-c3nc4c5c(nc(OC[C@@]67CCCN6C[C@H](F)C7)nc5c3F)N3C[C@H]5CC[C@@H]([C@H]3CCC4)N5Cc3oc(=O)oc3C)c12 [Example 70, 4-(((5-ethynyl-6-fluoro-4-((6aR,7S,10R)-1-fluoro-13-(((2R,7aS)-2-fluorotetrahydro-1H-pyrrolizin-7a(5H)-yl)methoxy)-15-((5-methyl-2-oxo-1,3-dioxol-4-yl)methyl)-5,6,6a,7,8,9,10,11-octahydro-4H-3,11a,12,14,15-pentaaza-7,10-methanocyclohepta[4,5]cycloocta[1,2,3-de]naphthalen-2-yl)naphthalen-2-yl)amino)methyl)-5-methyl-1,3-dioxol-2-one]
The EC50 of the first is 4.2-fold higher: 1300 pM for the first, 310 pM for the second.

Compared with `C#Cc1c(F)ccc2cc(N)cc(-c3nc4c5c(nc(OC[C@@]67CCCN6C[C@H](F)C7)nc5c3F)N3C[C@H]5CC[C@@H]([C@H]3CCC4)N5Cc3oc(=O)oc3-c3ccccc3)c12` [Example 69, 4-(((6aR,7S,10R)-2-(3-amino-8-ethynyl-7-fluoronaphthalen-1-yl)-1-fluoro-13-(((2R,7aS)-2-fluorotetrahydro-1H-pyrrolizin-7a(5H)-yl)methoxy)-5,6,6a,7,8,9,10,11-octahydro-4H-3,11a,12,14,15-pentaaza-7,10-methanocyclohepta[4,5]cycloocta[1,2,3-de]naphthalen-15-yl)methyl)-5-phenyl-1,3-dioxol-2-one], `C#Cc1c(F)ccc2cc(O)cc(-c3nc4c5c(nc(OC[C@@]67CCCN6C[C@H](F)C7)nc5c3F)N3C[C@H]5CC[C@@H]([C@H]3CCC4)N5Cc3oc(=O)oc3-c3ccccc3)c12` [Example 72, 4-(((6aR,7S,10R)-2-(8-ethynyl-7-fluoro-3-hydroxynaphthalen-1-yl)-1-fluoro-13-(((2R,7aS)-2-fluorotetrahydro-1H-pyrrolizin-7a(5H)-yl)methoxy)-5,6,6a,7,8,9,10,11-octahydro-4H-3,11a,12,14,15-pentaaza-7,10-methanocyclohepta[4,5]cycloocta[1,2,3-de]naphthalen-15-yl)methyl)-5-phenyl-1,3-dioxol-2-one] is 4.4-fold lower in EC50: 480 pM for the first, 110 pM for the second.

First: C#Cc1c(F)ccc2cc(O)cc(-c3nc4c5c(nc(OC[C@]6(C)CN(C)CC[C@@H]6C(F)F)nc5c3F)N3C[C@H]5CC[C@@H]([C@H]3CCC4)N5Cc3oc(=O)oc3C)c12 [Example 74, 4-(((6aR,7S,10R)-13-(((3S,4S)-4-(difluoromethyl)-1,3-dimethylpiperidin-3-yl)methoxy)-2-(8-ethynyl-7-fluoro-3-hydroxynaphthalen-1-yl)-1-fluoro-5,6,6a,7,8,9,10,11-octahydro-4H-3,11a,12,14,15-pentaaza-7,10-methanocyclohepta[4,5]cycloocta[1,2,3-de]naphthalen-15-yl)methyl)-5-methyl-1,3-dioxol-2-one]
Second: C#Cc1c(F)ccc2cc(N)cc(-c3nc4c5c(nc(OC[C@]6(C)CN(C)CC[C@@H]6C(F)F)nc5c3F)N3C[C@H]5CC[C@@H]([C@H]3CCC4)N5Cc3oc(=O)oc3C)c12 [Example 76, 4-(((6aR,7S,10R)-2-(3-amino-8-ethynyl-7-fluoronaphthalen-1-yl)-13-(((3S,4S)-4-(difluoromethyl)-1,3-dimethylpiperidin-3-yl)methoxy)-1-fluoro-5,6,6a,7,8,9,10,11-octahydro-4H-3,11a,12,14,15-pentaaza-7,10-methanocyclohepta[4,5]cycloocta[1,2,3-de]naphthalen-15-yl)methyl)-5-methyl-1,3-dioxol-2-one]
The EC50 of the first is 15-fold lower: 60 pM for the first, 890 pM for the second.

In the case of `[2H]C([2H])([2H])N1CC[C@H](C(F)F)[C@](C)(C([2H])([2H])Oc2nc3c4c(nc(-c5cc(O)cc6ccc(F)c(C#C)c56)c(F)c4n2)CCC[C@@H]2[C@@H]4CC[C@H](CN32)N4Cc2oc(=O)oc2C)C1` [Example 75, 4-(((6aR,7S,10R)-13-(((3S,4S)-4-(difluoromethyl)-3-methyl-1-(methyl-d3)piperidin-3-yl)methoxy-d2)-2-(8-ethynyl-7-fluoro-3-hydroxynaphthalen-1-yl)-1-fluoro-5,6,6a,7,8,9,10,11-octahydro-4H-3,11a,12,14,15-pentaaza-7,10-methanocyclohepta[4,5]cycloocta[1,2,3-de]naphthalen-15-yl)methyl)-5-methyl-1,3-dioxol-2-one], the EC50 is reported as 80 pM.

Same assay, conditions: GP2D cells, 4 days, CellTiter-Glo luminescence; read-out: G12D 2D EC50

`C#Cc1c(F)ccc2cc(O)cc(-c3nc4c5c(nc(OCC67CCCN6C(COC(C(F)(F)F)(C(F)(F)F)C(F)(F)F)CC7)nc5c3F)N3CC5CCC(C3CC4)N5Cc3oc(=O)oc3C)c12` [Example 68, 4-(((8aR,9S,12R)-5-(8-ethynyl-7-fluoro-3-hydroxynaphthalen-1-yl)-4-fluoro-2-(((3S,7aS)-3-(((1,1,1,3,3,3-hexafluoro-2-(trifluoromethyl)propan-2-yl)oxy)methyl)tetrahydro-1H-pyrrolizin-7a(5H)-yl)methoxy)-7,8,8a,9,10,11,12,13-octahydro-1,3,6,13a,14-pentaaza-9,12-methanonaphtho[1,8-ab]heptalen-14-yl)methyl)-5-methyl-1,3-dioxol-2-one] showed an EC50 of 650 pM.
